Laboratory results: US12459914B2, “Compounds and compositions for the treatment of tumors” (FONDAZIONE ISTITUTO ITALIANO DI TECNOLOGIA, priority 2019, dated 2025)

Columns and labels:
BxPC-3 cells [1] = assay: Cell viability assay (CellTiter Glo); format: cell-based; settings: Homo sapiens, 72 h
Procedure: (§1) BxPC-3 cells were grown in RPMI 1640 containing 10% FBS, 100 U/ml penicillin/streptomycin, 2 mM glutamine. All media and supplements were from Sigma-Aldrich. Cultures were routinely tested for Mycoplasma contamination. Treatments (Olaparib and BRCA2-Rad51 disruptors) were administered in culture medium supplemented with 0.6% DMSO. The same amount of DMSO was added to the control, untreated cultures.
(§2) Cell viability was assessed by CellTiter Glo, Luminescent Cell Viability Assay. Briefly, BxPC-3 cells (1×10^4/well) were plated in white 96-well plates with clear bottom and treated for 72 h with olaparib (10 μM) or with the BRCA2-Rad51 disruptors, given alone or in combination. After treatments, the plate was allowed to equilibrate at room temperature for 30 min and the CellTiter-Glo reactive was directly added to each well. The plate was kept on a shaker for 2 min to induce cell lysis and its luminescence was measured by using a Fluoroskan Ascent FL reader (Labsystems) using manufacturer's instructions.

BRC4/RAD51 interaction = target: T1, BRC4/RAD51 interaction (Homo sapiens, UniProt Q06609); assay: Competitive ELISA assay, disruption of BRC4/RAD51 interaction; format: binding; settings: human Rad51, biotinylated BRC4 peptide
T1 construct: purchased Creative Biomart (Rad51); Life Technologies (BRC4 peptide)
T1 sequence (Q06609 1-339): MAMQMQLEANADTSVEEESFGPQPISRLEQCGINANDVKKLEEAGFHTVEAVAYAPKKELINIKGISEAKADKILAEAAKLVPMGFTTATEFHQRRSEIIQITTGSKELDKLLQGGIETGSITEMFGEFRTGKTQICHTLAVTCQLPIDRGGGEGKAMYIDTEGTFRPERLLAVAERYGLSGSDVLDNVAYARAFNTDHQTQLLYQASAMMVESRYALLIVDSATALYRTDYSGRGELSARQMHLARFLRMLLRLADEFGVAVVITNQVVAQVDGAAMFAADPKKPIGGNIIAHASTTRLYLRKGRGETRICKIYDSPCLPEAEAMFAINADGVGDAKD
Procedure: A competitive ELISA screening assay using biotinylated BRC4 peptide to disrupt the BRC4/RAD51 interaction was performed by modifying the method described by Rajendra et al. (Nucleic Acids Res. 38 (2010) 82-96). BRC4-biotinylated peptide (N-term Biotin[…] from Life Technologies) was used to coat 384-well plates (Nunc). After washing with PBS containing 0.05% Tween-20 (PBST), and blocking with the solution BSA 1%/PBST, overnight hybridization with human Rad51 protein (NP_002866 Creative Biomart, NY) was performed. Test compounds were added in dose-response from […] in triplicate with constant DMSO 1%. Antibody raised against Rad51 (Millipore) and HRP-secondary antibody staining to develop the 3,30,5,50-tetramethyllbenzidine signal (Sigma) quenched with 1M HCl was used as the assay readout. Colorimetric measure was read on Victor5 (PerkinElmer) plate Reader. BRC4 and Rad51 were included in the assay as positive control. Results were analyzed using GraphPad Software.

BxPC-3 cells [2] = assay: Association with olaparib (given alone or in combination), cell viability / cytotoxicity; format: cell-based; settings: olaparib 10 μM, 72 h
Procedure: as §1, §2
Cell death was assessed by applying the CellTox™ Green Cytotoxicity assay (Promega). Briefly, BxPC-3 (1×10^4/well) were plated in black 96-well plates with clear bottom and treated for 72 h with olaparib (10 μM) or with the BRCA2-Rad51 disruptors, given alone or in combination. At the end of treatment, the CellTox™ dye was added to cell cultures and the green fluorescence signal, which is produced by the binding interaction with dead cell DNA, was measured following the manufacturer's instructions. The fluorescence signal was detected using the EnSpire 2300 Multilabel Reader (Perkin Elmer); for each sample, the obtained signal was normalized on the number of viable cells, detected by the CellTiterGlo reagent.

[3] = test system: Homologous recombination (HR) in BxPC3 cells; assay: Homologous recombination assay (HR); format: cell-based; settings: Homo sapiens; for inhibition at 20 µM: BXPC-3, at 20 μM
Procedure: Homologous recombination (HR) was assessed by using a commercially available assay (Norgen). This assay is based on cell co-transfection with two plasmids that, upon cells entering, recombinate. The efficiency of HR can be assessed by real time PCR, using primer mixtures included in the assay kit. Different primer mixtures allow differentiation between the original plasmid backbones and their recombination product.
BxPC3 cells (2×10^3 per well) were seeded in a 24-well plate and allowed to adhere overnight. Co-transfection with the two plasmids was performed in Lipofectamine 2000 (Invitrogen) for 5 h, according to the manufacturer's instructions. During transfection cells were exposed at different doses of BRCA2-Rad51 disruptors, dissolved in RPMI without serum in the presence of 0.6% DMSO.
After washing with PBS, cells were harvested, and DNA was isolated using QIAamp® DNA Mini Kit (Qiagen). Sample concentration was measured using an ONDA Nano Genius photometer.
The thermal cycler (CFX96 ™ Real Time System, BioRad) was programmed as follows: initial denaturation 95° C. for 3 min then 95° C. for 15 sec., 61° C. for 30 sec., 72° C. for 1 min and repeated for 40 cycles. Melt curve analysis was done. Samples were run in triplicate, in 10 μl reaction volume containing 25 ng of template.
In each DNA sample from control and treated cultures, the ΔCt between the recombination product and the backbone plasmids was calculated. HR efficiency was evaluated from the 2^−ΔΔ^Ct value obtained by comparing treated vs control samples.

SMILES	EC50 (BxPC-3 cells [1]) [µM]	EC50 (BRC4/RAD51 interaction) [µM]	Olaparib Assoc. (BxPC-3 cells [2])	inhibition at 5 µM ([3]; BXPC-3, at 5 μM) [%]	inhibition at 40 µM ([3]; BXPC-3, at 40 μM) [%]	inhibition at 20 µM [3] [%]
Cn1ccc2cc(C3CC(c4c(-c5ccccc5)c5cc(Cl)ccc5[nH]c4=O)=NN3C(=O)CCC(=O)O)ccc21 (centres unmarked) [d.22, 4-[5-(6-chloro-2-oxo-4-phenyl-1H-quinolin-3-yl)-3-(1-methylindol-5-yl)-3,4-dihydropyrazol-2-yl]-4-oxo-butanoic acid]	> 20	2	synergy			
CCCn1ncc2cc(C3CC(c4c(-c5ccccc5)c5cc(Cl)ccc5[nH]c4=O)=NN3C(C)=O)ccc21 (centres unmarked) [d.34, 3-[2-acetyl-3-(1-propylindazol-5-yl)-3,4-dihydropyrazol-5-yl]-6-chloro-4-phenyl-1H-quinolin-2-one]	11	0.95		83		
CC(=O)N1N=C(c2c(-c3ccccc3)c3cc(Cl)ccc3[nH]c2=O)CC1c1ccc(-c2ccc(Br)cc2)cc1 (centres unmarked) [d.40, 3-[2-acetyl-3-[4-(4-bromophenyl)phenyl]-3,4-dihydropyrazol-5-yl]-6-chloro-4-phenyl-1H-quinolin-2-one]	28	45				
CCCn1cc(-c2ccc(C3CC(c4c(-c5ccccc5)c5cc(Cl)ccc5[nH]c4=O)=NN3C(=O)CCC(=O)O)cc2)cn1 (centres unmarked) [d.43, 4-[5-(6-chloro-2-oxo-4-phenyl-1H-quinolin-3-yl)-3-[4-(1-propylpyrazol-4-yl)phenyl]-3,4-dihydropyrazol-2-yl]-4-oxo-butanoic acid]	74.2	65				
CCn1cc2cc(-c3ccc(C4CC(c5c(-c6ccccc6)c6cc(Cl)ccc6[nH]c5=O)=NN4C(=O)CCC(=O)O)cc3)ccc2n1 (centres unmarked) [d.46, 4-[5-(6-chloro-2-oxo-4-phenyl-1H-quinolin-3-yl)-3-[4-(2-ethylindazol-5-yl)phenyl]-3,4-dihydropyrazol-2-yl]-4-oxo-butanoic acid]	44	17	synergy		91.7	
CC(=O)N1N=C(c2c(-c3ccccc3)c3cc(Cl)ccc3[nH]c2=O)CC1c1ccccc1 (centres unmarked) [d.47, 3-(2-acetyl-3-phenyl-3,4-dihydropyrazol-5-yl)-6-chloro-4-phenyl-1H-quinolin-2-one]	29.7	19				

Second part, led by results:

EC50 (BxPC-3 cells [1]) [µM]	EC50 (BRC4/RAD51 interaction) [µM]	SMILES	Olaparib Assoc. (BxPC-3 cells [2])	inhibition at 5 µM ([3]; BXPC-3, at 5 μM) [%]	inhibition at 40 µM ([3]; BXPC-3, at 40 μM) [%]	inhibition at 20 µM [3] [%]
13.7	24	CCC(=O)N1N=C(c2c(-c3ccccc3)c3cc(Cl)ccc3[nH]c2=O)CC1c1ccccc1 (centres unmarked) [d.48, 6-chloro-4-phenyl-3-(3-phenyl-2-propanoyl-3,4-dihydropyrazol-5-yl)-1H-quinolin-2-one]				
15.2	13	CC(=O)N1N=C(c2c(Cc3ccccc3)c3cc(Cl)ccc3[nH]c2=O)CC1c1ccc(F)cc1 (centres unmarked) [d.51, 3-[2-acetyl-3-(4-fluorophenyl)-3,4-dihydropyrazol-5-yl]-4-benzyl-6-chloro-1H-quinolin-2-one]				
23.2	70	O=C(O)CCC(=O)N1N=C(c2c(Cc3ccccc3)c3cc(Cl)ccc3[nH]c2=O)CC1c1ccc(Cl)cc1 (centres unmarked) [d.55, 4-[5-(4-benzyl-6-chloro-2-oxo-1H-quinolin-3-yl)-3-(4-chlorophenyl)-3,4-dihydropyrazol-2-yl]-4-oxo-butanoic acid]				
79.2	25	COc1ccc(C2CC(c3c(Cc4ccccc4)c4cc(Cl)ccc4[nH]c3=O)=NN2C(=O)CCC(=O)O)cc1F (centres unmarked) [d.66, 4-[5-(4-benzyl-6-chloro-2-oxo-1H-quinolin-3-yl)-3-(3-fluoro-4-methoxy-phenyl)-3,4-dihydropyrazol-2-yl]-4-oxo-butanoic acid]				6.15
28.4	90	O=C(O)CCC(=O)N1N=C(c2c(Cc3ccccc3)c3cc(Cl)ccc3[nH]c2=O)CC1c1ccc(-c2ccc(Cl)cc2)cc1 (centres unmarked) [d.84, 4-[5-(4-benzyl-6-chloro-2-oxo-1H-quinolin-3-yl)-3-[4-(4-chlorophenyl)phenyl]-3,4-dihydropyrazol-2-yl]-4-oxo-butanoic acid]				21.7
56.6	53	CCn1cc2cc(-c3ccc(C4CC(c5c(Cc6ccccc6)c6cc(Cl)ccc6[nH]c5=O)=NN4C(=O)CCC(=O)O)cc3)ccc2n1 (centres unmarked) [d.93, 4-[5-(4-benzyl-6-chloro-2-oxo-1H-quinolin-3-yl)-3-[4-(2-ethylindazol-5-yl)phenyl]-3,4-dihydropyrazol-2-yl]-4-oxo-butanoic acid]				
24.3	60	CC(=O)N1N=C(c2c(-c3ccccc3)c3cc(Cl)ccc3[nH]c2=O)CC1c1ccncc1 (centres unmarked) [d.97, 3-(1-acetyl-5-(pyridin-4-yl)-4,5-dihydro-1H-pyrazol-3-yl)-6-chloro-4-phenylquinolin-2 (1H)-one]				
144	75	O=C(O)CCC(=O)N1N=C(c2c(-c3ccccc3)c3cc(Cl)ccc3[nH]c2=O)CC1c1cccnc1 (centres unmarked) [d.98, 4-(3-(6-chloro-2-oxo-4-phenyl-1,2-dihydroquinolin-3-yl)-5-(pyridin-3-yl)-4,5-dihydro-1H-pyrazol-1-yl)-4-oxobutanoic acid]				22
